{"source": "patent US20120177701A1", "about": "“COMPOSITIONS COMPRISING IMMUNOSTIMULATORY NUCLEIC ACIDS AND RELATED METHODS” (priority 2010, published 2012)", "key": {"human TLR3": {"molecular_target": "T1, human TLR3 (Homo sapiens, UniProt O15455)", "T1 construct": "expressed in transfected cells; host or cells: HEK-Blue hTLR3 (HEK293-derived reporter line)", "T1 sequence (O15455 24-904)": "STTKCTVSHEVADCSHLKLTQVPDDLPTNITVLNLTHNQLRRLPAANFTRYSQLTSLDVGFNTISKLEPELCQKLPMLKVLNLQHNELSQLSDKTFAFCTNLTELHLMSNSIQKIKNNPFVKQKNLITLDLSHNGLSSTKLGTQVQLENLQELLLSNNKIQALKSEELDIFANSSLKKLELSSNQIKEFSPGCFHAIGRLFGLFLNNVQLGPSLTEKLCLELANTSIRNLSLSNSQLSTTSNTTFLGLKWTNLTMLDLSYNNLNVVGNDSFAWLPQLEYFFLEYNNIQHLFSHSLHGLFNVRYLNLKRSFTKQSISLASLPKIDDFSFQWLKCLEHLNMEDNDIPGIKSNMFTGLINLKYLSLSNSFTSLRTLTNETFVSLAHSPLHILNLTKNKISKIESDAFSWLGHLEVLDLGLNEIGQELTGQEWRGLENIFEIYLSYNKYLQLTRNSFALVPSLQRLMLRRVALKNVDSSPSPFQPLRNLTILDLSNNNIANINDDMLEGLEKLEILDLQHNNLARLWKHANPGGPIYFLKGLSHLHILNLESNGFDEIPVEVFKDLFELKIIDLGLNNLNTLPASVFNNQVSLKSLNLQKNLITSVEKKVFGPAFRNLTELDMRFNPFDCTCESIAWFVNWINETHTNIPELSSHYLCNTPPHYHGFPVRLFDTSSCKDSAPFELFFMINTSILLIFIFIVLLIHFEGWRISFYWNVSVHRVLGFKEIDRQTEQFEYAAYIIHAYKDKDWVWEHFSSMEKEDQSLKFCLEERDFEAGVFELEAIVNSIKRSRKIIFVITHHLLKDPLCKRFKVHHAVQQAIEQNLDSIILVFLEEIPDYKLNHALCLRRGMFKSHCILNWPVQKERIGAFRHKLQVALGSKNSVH", "format": "cell-based"}, "HEK-Blue™ Null": {"tested_on": "HEK-Blue™ Null", "format": "cell-based, human"}}, "data": [{"substance": "5′-GAGAUGUUAUUUUGUUUUUAAUAUUUC-3′ (phosphorothioate backbone, further chemistry not given here) [SL-0001, phosphorothioated 27-ribonucleotide from the 3′-terminus of Chikungunya virus strain TSI-GSD-218, bases 12010-12036]", "values": [{"measurement": "activation of SEAP expression", "setting": "human TLR3", "value": "No activation of SEAP expression"}, {"measurement": "activation of SEAP expression", "setting": "HEK-Blue™ Null", "value": "No activation of SEAP expression"}]}]}
